Measured values published in a melting point compilation (Tetko et al.; mined from patent text by program, amines drawn as free bases though some values may be those of a salt).

Compound `CN(C)c1nc(N)c(C#N)nc1C#N` has a melting point of 201 to 202 °C. For `CCCCCc1ccc(-c2ccc(C3CC(CCCCC)C(=O)O3)cc2)cc1` (centres undefined), the melting point was 86.2 to 88.4 °C. For `Cc1ccc(F)cc1C(=O)Nc1ccc(C(=O)N2Cc3ccccc3Nc3ncccc32)cn1`, the melting point was 102 to 104 °C. With `CC(=O)NS(=O)(=O)c1cc(C(=O)CCl)ccc1Cl` the melting point was 177 °C. Work on `COc1cccc(Cl)c1CBr` yielded a melting point of 44 to 47 °C. In the case of `COc1cc2nc(C)c3c4cc5c(cc4ccc3c2cc1OC)OCO5`, the melting point is reported as > 250 °C. Work on `CCC12CCC3C4CCC(=O)C=C4CCC3C1CCC2OCCN(C)C` (centres undefined) yielded a melting point of 87 to 88 °C. In the case of `O=C(O)c1ccc(Cc2ccc(-c3ccccc3-c3nnn[nH]3)cc2)c2[nH]c(OCC(F)(F)F)nc12`, the melting point is reported as 204 to 206 °C. Work on `Fc1ccc(/C=C/c2nc(COc3cccc(CCCn4ccnn4)c3)co2)c(F)c1` yielded a melting point of 89 to 90 °C. Work on `COc1ccc(-c2cc(CCC(=O)O)sc2-c2ccc(OC)cc2)cc1` yielded a melting point of 96 °C. `CC(C)c1nc2ccccc2n1CCCCCSc1nc(-c2ccc(N(C)C)cc2)c(-c2ccc(N(C)C)cc2)[nH]1` gave a melting point of 110 to 112 °C. `O=C(c1ccc(=O)[nH]c1)n1ccnc1` showed a melting point of 200 °C. `CCOC(=O)c1cn(-c2nc(N)c(F)cc2F)c2c(F)c(F)c(F)c(F)c2c1=O` showed a melting point of 223 to 230 °C. `O=C(c1ccccc1Cl)c1ccccc1C#CCN1C(=O)c2ccccc2C1=O` gave a melting point of 149 to 150 °C. With `OCc1cn(-c2c(Cl)cc(C(F)(F)F)cc2Cl)nn1` the melting point was 123 to 125 °C. With `CC(=O)N=c1[nH]c2ccccc2n1CCCN1CCN(C(c2ccccc2)c2ccccc2)CC1` the melting point was 143 °C. In the case of `CN1C(=O)Nc2ccc(Cl)cc2C12NC(=O)NC2=O` (centres undefined), the melting point is reported as > 280 °C. `CCC(C(N)=O)N(Cc1ccc2nc(NCCCN3CCOCC3)n(Cc3nc(C)ccc3OC)c2c1)c1cc(C)cc(C)c1` (centres undefined) gave a melting point of 130 °C. With `CC(=O)OCc1c(Br)cccc1N1CCc2c(cc3n2CCCC3)C1=O` the melting point was 176 to 178 °C. With `Nc1ccc(C(=O)N2CC3CC(CN(Cc4ccc(Cl)cc4)C3)C2)cc1` the melting point was 213 °C. Compound `CCOC(=O)C1=C(N)NC(N)=C(C(=O)OCC)C1c1ccccc1` has a melting point of 139 °C. Compound `O=C(O)CCCc1ccc(CCNS(=O)(=O)c2ccccc2)cc1` has a melting point of 70 to 71 °C. `CCC(O)(CC)Cc1ccc(NC(=O)OCc2ccccc2)cc1` showed a melting point of 99 to 100 °C. For `Cc1nc2c(cc1Br)c(=O)c(C(=O)NCc1ccc(Cl)cc1)cn2C`, the melting point was 266 to 268 °C. Work on `O=C1OC(=Nc2ccc(F)cc2F)C2=C1CCCC2` yielded a melting point of 81 to 84 °C. In the case of `CCCCc1oc2ccccc2c1C(O)c1ccc(-c2cc(Br)c(O)c(Br)c2)cc1` (centres undefined), the melting point is reported as 60 to 62 °C. For `Clc1cc2nc(Cl)c(N3CCNCC3)nc2cc1Cl`, the melting point was > 300 °C. `CC(=O)Oc1ccc2c(C)cc(=O)oc2c1CC(Br)CBr` (centres undefined) gave a melting point of 145 to 148 °C. For `Cc1nc(-c2ccc3c(c2)c2cc(-c4ccc(Cl)cc4Cl)c(=O)n(C)c2n3C)cs1`, the melting point was 253 to 254 °C. In the case of `CC(C)CC(C(=O)O)c1cc(Cl)c(-c2ccc(C(F)(F)F)cc2)c(OCC2CC2)c1` (centres undefined), the melting point is reported as 115 to 116 °C. `COCC(CCO)(OC)c1cccc(OCc2ccc3ccccc3c2)c1` (centres undefined) showed a melting point of 64 to 65 °C. For `COC(=O)c1cc2ccc(OC)cc2o1`, the melting point was 97 to 98 °C. `CC(C)(C)OC(=O)NC(Cc1ccccc1)C(O)C(Cc1ccccc1)NC(=O)[C@H](CC(N)=O)NC(=O)OCc1ccccc1` (some centres undefined) showed a melting point of 216 to 217 °C. In the case of `Cc1ccc(C=Nc2ccc(Cl)cc2Cl)c(C)c1`, the melting point is reported as 102 to 106 °C. `C[C@@H](n1ncn(-c2ccc(O)cc2)c1=O)[C@](O)(Cn1cncn1)c1ccc(F)cc1F` showed a melting point of 242 °C. Work on `C#CCC(C(=COC)c1cccnc1)c1ccc(Cl)cc1Cl` (centres undefined) yielded a melting point of 96 to 97 °C. `N#Cc1ccc(-c2cc(-c3cc(Br)ccc3Cl)no2)cc1` showed a melting point of 198 to 199 °C. In the case of `Cc1nc2c(OCc3ccccc3F)cccn2c1CO`, the melting point is reported as 151 to 153 °C. `N#Cc1c(N2CCc3ccccc3CC2)[nH]c(=O)[nH]c1=O` gave a melting point of 183 to 186 °C. Compound `NC(=O)NN=Cc1ccc(OC2CCOCC2)cc1` has a melting point of 208 to 209 °C. With `CN1C(=O)C2=C(c3ccc(Br)cc3)OC(=O)C2=C1c1ccccc1` the melting point was 215 to 216 °C. Work on `CCNC(=O)OCCCCCCCCC1Cc2c(c(OC)c(OC)c(OC)c2OC)C1` yielded a melting point of 85 to 86 °C. `N#CNc1ccc(OCc2ccccc2)cc1` showed a melting point of 105 °C. Compound `Cc1cc(CCCCCOc2ccc(C3=NCCO3)cc2)on1` has a melting point of 102 to 104 °C. With `COc1ccc(-c2ccc(NCc3ccccc3)nn2)cc1OC1CCCC1` the melting point was 116 °C. `CCCCc1nc(Cl)c(C=O)n1Cc1ccc(-c2nnn(C(c3ccccc3)(c3ccccc3)c3ccccc3)n2)cc1` gave a melting point of 154 to 157 °C. In the case of `COc1ccc(CCCOCCn2cnc3c(N)nc4ccccc4c32)cc1`, the melting point is reported as 116 to 118 °C. For `NCCc1c[nH]c2ccc(Cc3nnn(Cc4ccccc4)n3)cc12`, the melting point was 181 to 183 °C. `Nc1nc2ccccc2c2c1nc(CCO)n2CCCNC(=O)c1cc2ccccc2cn1` showed a melting point of 245 to 246 °C.
